Laboratory results reported in patent US20250122223A1, “HETEROCYCLIC COMPOUNDS AS UBIQUITIN SPECIFIC PROTEASE 7 INHIBITORS” (ALMAC DISCOVERY LIMITED, priority 2022, published 2025).
pIC50: −log10 of the molar value. Where two headings read alike, the source gives them in different places.

Target: USP7 (Homo sapiens (Human), UniProt Q93009)
Assay: USP7 fluorescence polarisation (FP) assay with ubiquitin-Lys-TAMRA substrate
Assay type: biochemical
Settings: biochemical inhibition; for pIC50: read-out: USP7 IC50 activity (Table 3a, classes); for IC50: unit not given in Table 3b (Table 1 and key of Table 3a use μM), read-out: USP7 IC50 activity (Table 3b)
Experimental: USP7 activity was monitored in a fluorescence polarisation (FP) homogeneous assay using the isopeptide ubiquitin-Lys-TAMRA substrate (U-558, Boston Biochem). Full-length USP7 was purchased from Boston Biochem (His6-USP7FL, E-519). Unless otherwise stated, all other reagents were purchased from Sigma-Aldrich. Enzymatic reactions were conducted in black flat-bottom low volume polystyrene 384-well plates (Grenier) and 15 μL total volume. USP7 (2.5 nM, 5 μL) was incubated in assay buffer (50 mM HEPES (pH 7.2), 150 mM NaCl, 5 mM DTT, 0.05% BSA (w/v), 0.05% CHAPS) in the presence or absence of inhibitor (5 μL). Inhibitors were stored as 10 mM DMSO stocks in an inert environment (low humidity, dark, low oxygen, room temperature) using a Storage Pod System and serial dilutions were prepared in buffer just prior to the assay (from 200 to 0.003 μM, 11 dp curve). Following incubation at room temperature for 30 min, the enzymatic reactions were initiated by dispensing the Ub substrate (50 nM, 5 μL). FP was measured every 5 min over a period of 1.5 h (within the linear range of the assay) using a Pherastar FSX (BMG Labtech) exciting at 530 nm and measuring the amount of parallel and perpendicular light at 575 nm. The FP signal was subsequently normalised to the control without compound present. Data were plotted and fitted, and the concentrations resulting in 50% inhibition (IC50) were calculated using the non-linear regression curve fitting model using GraphPad Prism.

USP7, sequence (Q93009 whole entry): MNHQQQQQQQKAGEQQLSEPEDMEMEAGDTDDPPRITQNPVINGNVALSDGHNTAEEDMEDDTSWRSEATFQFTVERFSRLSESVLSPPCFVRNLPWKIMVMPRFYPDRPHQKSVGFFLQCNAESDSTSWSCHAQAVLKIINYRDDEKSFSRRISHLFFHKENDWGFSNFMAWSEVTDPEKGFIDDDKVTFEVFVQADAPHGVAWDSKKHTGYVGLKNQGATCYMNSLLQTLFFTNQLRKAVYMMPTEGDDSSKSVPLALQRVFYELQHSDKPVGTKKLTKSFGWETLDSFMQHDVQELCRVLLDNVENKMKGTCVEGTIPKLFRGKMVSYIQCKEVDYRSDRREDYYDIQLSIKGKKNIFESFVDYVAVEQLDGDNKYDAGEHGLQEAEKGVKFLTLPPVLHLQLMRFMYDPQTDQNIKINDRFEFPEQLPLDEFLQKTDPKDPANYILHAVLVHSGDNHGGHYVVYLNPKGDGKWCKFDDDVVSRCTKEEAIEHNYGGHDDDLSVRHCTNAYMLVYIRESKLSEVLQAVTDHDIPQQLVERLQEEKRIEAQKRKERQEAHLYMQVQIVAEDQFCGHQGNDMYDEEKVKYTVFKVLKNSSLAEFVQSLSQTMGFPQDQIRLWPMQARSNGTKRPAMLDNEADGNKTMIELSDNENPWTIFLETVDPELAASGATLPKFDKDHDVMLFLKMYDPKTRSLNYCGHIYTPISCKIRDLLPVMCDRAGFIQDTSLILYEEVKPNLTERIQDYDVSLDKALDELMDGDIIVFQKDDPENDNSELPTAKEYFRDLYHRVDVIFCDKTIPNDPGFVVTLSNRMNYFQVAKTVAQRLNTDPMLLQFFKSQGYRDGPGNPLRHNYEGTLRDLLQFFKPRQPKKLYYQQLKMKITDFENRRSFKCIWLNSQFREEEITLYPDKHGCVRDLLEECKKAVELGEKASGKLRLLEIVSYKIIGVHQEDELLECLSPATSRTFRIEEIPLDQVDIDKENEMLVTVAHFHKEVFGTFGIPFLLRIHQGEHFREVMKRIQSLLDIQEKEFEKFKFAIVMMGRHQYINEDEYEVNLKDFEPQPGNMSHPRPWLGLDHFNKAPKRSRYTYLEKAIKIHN

Compound | pIC50 | IC50 [µM]
CC1(C)CN[C@@H](c2ccc(-n3c(Cl)cc4c(=O)n(CC5(O)CCN(C(=O)C[C@H](c6ccccc6)C(F)(F)F)CC5)cnc43)cc2)CO1 (mixture of isomers) [Example 10, 6-Chloro-7-(4-((S)-6,6-dimethylmorpholin-3-yl)phenyl)-3-((4-hydroxy-1-((R)-4,4,4-trifluoro-3-phenylbutanoyl)piperidin-4-yl)methyl)-3,7-dihydro-4H-pyrrolo[2,3-d]pyrimidin-4-one and 6-chloro-7-(4-((R)-6,6-dimethylmorpholin-3-yl)phenyl)-3-((4-hydroxy-1-((R)-4,4,4-trifluoro-3-phenylbutanoyl)piperidin-4-yl)methyl)-3,7-dihydro-4H-pyrrolo[2,3-d]pyrimidin-4-one] | > 7.00 | 0.017
O=C(C[C@H](c1ccccc1)C(F)(F)F)N1CCC(O)(Cn2cnc3c(cc(Cl)n3-c3ccc([C@H]4COCCN4)c(Cl)c3)c2=O)CC1 (mixture of isomers) [Example 86, 6-Chloro-7-(3-chloro-4-((S)-morpholin-3-yl)phenyl)-3-((4-hydroxy-1-((R)-4,4,4-trifluoro-3-phenylbutanoyl)piperidin-4-yl)methyl)-3,7-dihydro-4H-pyrrolo[2,3-d]pyrimidin-4-one and 6-chloro-7-(3-chloro-4-((R)-morpholin-3-yl)phenyl)-3-((4-hydroxy-1-((R)-4,4,4-trifluoro-3-phenylbutanoyl)piperidin-4-yl)methyl)-3,7-dihydro-4H-pyrrolo[2,3-d]pyrimidin-4-one (1:1)] | 6.60 to 7.00 | 0.134
O=C(C[C@H](c1ccccc1)C(F)(F)F)N1CCC(O)(Cn2cnc3c(cc(Cl)n3-c3ccc([C@H]4COCCN4)c(C(F)(F)F)c3)c2=O)CC1 (mixture of isomers) [Example 87, 6-Chloro-3-((4-hydroxy-1-((R)-4,4,4-trifluoro-3-phenylbutanoyl)piperidin-4-yl)methyl)-7-(4-((S)-morpholin-3-yl)-3-(trifluoromethyl)phenyl)-3,7-dihydro-4H-pyrrolo[2,3-d]pyrimidin-4-one and 6-chloro-3-((4-hydroxy-1-((R)-4,4,4-trifluoro-3-phenylbutanoyl)piperidin-4-yl)methyl)-7-(4-((R)-morpholin-3-yl)-3-(trifluoromethyl)phenyl)-3,7-dihydro-4H-pyrrolo[2,3-d]pyrimidin-4-one (1:1)] | 5.70 to 6.60 | 0.292
C[C@H]1CN[C@H](c2ccc(-n3c(Cl)cc4c(=O)n(CC5(O)CCN(C(=O)C6(C)CC6)CC5)cnc43)cc2)CO1 (racemic) [Example 1, rac-6-Chloro-3-((4-hydroxy-1-(1-methylcyclopropane-1-carbonyl)piperidin-4-yl)methyl)-7-(4-((3R,6S)-6-methylmorpholin-3-yl)phenyl)-3,7-dihydro-4H-pyrrolo[2,3-d]pyrimidin-4-one] | > 7.00 | 0.03
C[C@H]1COC[C@@H](c2ccc(-n3c(Cl)cc4c(=O)n(CC5(O)CCN(C(=O)C6(C)CC6)CC5)cnc43)cc2)N1 (racemic) [Example 2, rac-6-Chloro-3-((4-hydroxy-1-(1-methylcyclopropane-1-carbonyl)piperidin-4-yl)methyl)-7-(4-((3R,5S)-5-methylmorpholin-3-yl)phenyl)-3,7-dihydro-4H-pyrrolo[2,3-d]pyrimidin-4-one] | > 7.00 | 0.046
O=C(c1ccc(Cl)cc1)N1CCC(O)(Cn2cnc3c(cc(Cl)n3-c3ccc([C@@H]4CO[C@@H](C(F)(F)F)CN4)cc3)c2=O)CC1 (racemic) [Example 9, rac-6-Chloro-3-((1-(4-chlorobenzoyl)-4-hydroxypiperidin-4-yl)methyl)-7-(4-((3R,6R)-6-(trifluoromethyl)morpholin-3-yl)phenyl)-3,7-dihydro-4H-pyrrolo[2,3-d]pyrimidin-4-one] | 5.70 to 6.60 | 0.42
C[C@H]1CN[C@H](c2ccc(-n3ccc4c(=O)n(CC5(O)CCN(C(=O)c6ccc(Cl)cc6)CC5)cnc43)cc2)CO1 (racemic) [Example 17, rac-3-((1-(4-Chlorobenzoyl)-4-hydroxypiperidin-4-yl)methyl)-7-(4-((3R,6S)-6-methylmorpholin-3-yl)phenyl)-3,7-dihydro-4H-pyrrolo[2,3-d]pyrimidin-4-one] | 6.60 to 7.00 | 0.175
O=C(N1CCC(O)(Cn2cnc3c(cc(Cl)n3-c3ccc([C@@H]4COC5(CCC5)CN4)cc3)c2=O)CC1)C1(C2CC2)CC1 (racemic) [Example 43, 7-(4-(5-Oxa-8-azaspiro[3.5]nonan-7-yl)phenyl)-3-((1-([1,1′-bi(cyclopropane)]-1-carbonyl)-4-hydroxypiperidin-4-yl)methyl)-6-chloro-3,7-dihydro-4H-pyrrolo[2,3-d]pyrimidin-4-one] | > 7.00 | 0.05
O=C(c1ccc(Cl)cc1)N1CCC(O)(Cn2cnc3c(cc(Cl)n3-c3ccc([C@@H]4COC5(CCC5)CN4)cc3)c2=O)CC1 (racemic) [Example 44, 7-(4-(5-Oxa-8-azaspiro[3.5]nonan-7-yl)phenyl)-6-chloro-3-((1-(4-chlorobenzoyl)-4-hydroxypiperidin-4-yl)methyl)-3,7-dihydro-4H-pyrrolo[2,3-d]pyrimidin-4-one] | 6.60 to 7.00 | 0.113
CC1(C)CN[C@@H](c2ccc(-n3c(Cl)cc4c(=O)n(CC5(O)CCN(C(=O)c6ccc(Cl)cc6)CC5)cnc43)cc2)CO1 (single isomer, unassigned) [Example 23] | 6.60 to 7.00 | 0.143
C[C@H]1COC[C@@H](c2ccc(-n3c(Cl)cc4c(=O)n(CC5(O)CCN(C(=O)c6ccc(Cl)cc6)CC5)cnc43)cc2)N1 (single isomer, unassigned) [Example 26] | 6.60 to 7.00 | 0.161
C[C@@H]1COC[C@H](c2ccc(-n3c(Cl)cc4c(=O)n(CC5(O)CCN(C(=O)c6ccc(Cl)cc6)CC5)cnc43)cc2)N1 (single isomer, unassigned) [Example 27] | 6.60 to 7.00 | 0.194
CC1(C)CN[C@@H](c2ccc(-n3c(Cl)cc4c(=O)n(CC5(O)CCN(C(=O)c6ccc(F)cc6)CC5)cnc43)cc2)CO1 (single isomer, unassigned) [Example 28] | 6.60 to 7.00 | 0.218
CC1(C)CN[C@H](c2ccc(-n3c(Cl)cc4c(=O)n(CC5(O)CCN(C(=O)c6ccc(F)cc6)CC5)cnc43)cc2)CO1 (single isomer, unassigned) [Example 29] | 6.60 to 7.00 | 0.118
C[C@H]1CN[C@H](c2ccc(-n3c(Cl)cc4c(=O)n(CC5(O)CCN(C(=O)[C@@]6(C)C[C@@H]6C(F)(F)F)CC5)cnc43)cc2)CO1 (single isomer, unassigned) [Example 33, 6-Chloro-3-((4-hydroxy-1-((1R,2R)-1-methyl-2-(trifluoromethyl)cyclopropane-1-carbonyl)piperidin-4-yl)methyl)-7-(4-((3R,6S)-6-methylmorpholin-3-yl)phenyl)-3,7-dihydro-4H-pyrrolo[2,3-d]pyrimidin-4-one or 6-chloro-3-((4-hydroxy-1-((1S,2S)-1-methyl-2-(trifluoromethyl)cyclopropane-1-carbonyl)piperidin-4-yl)methyl)-7-(4-((3R,6S)-6-methylmorpholin-3-yl)phenyl)-3,7-dihydro-4H-pyrrolo[2,3-d]pyrimidin-4-one] | 6.60 to 7.00 | 0.226
CC1(C)CN[C@H](c2ccc(-n3c(Cl)cc4c(=O)n(CC5(O)CCN(C(=O)c6ccc(Cl)cc6)CC5)cnc43)cc2)CO1 (single isomer, unassigned) [Example 34] | > 7.00 | 0.088
CC1(C)CN[C@H](c2ccc(-n3c(Cl)cc4c(=O)n(CC5(O)CCN(C(=O)C6(C7CC7)CC6)CC5)cnc43)cc2)CO1 (single isomer, unassigned) [Example 40] | 6.60 to 7.00 | 0.156
CC1(C)CN[C@H](c2ccc(-n3c(Cl)cc4c(=O)n(CC5(O)CCN(C(=O)C6(C7CC7)CC6)CC5)cnc43)cc2)CO1 (single isomer, unassigned) [Example 41] | > 7.00 | 0.079
O=C(c1ccc(Cl)cc1)N1CCC(O)(Cn2cnc3c(cc(Cl)n3-c3ccc([C@H]4CO[C@H](C5CC5)CN4)cc3)c2=O)CC1 (single isomer, unassigned) [Example 61] | 6.60 to 7.00 | 0.128
O=C(c1ccc(Cl)cc1)N1CCC(O)(Cn2cnc3c(cc(Cl)n3-c3ccc([C@@H]4CO[C@@H](C5CC5)CN4)cc3)c2=O)CC1 (single isomer, unassigned) [Example 64] | 6.60 to 7.00 | 0.11
C[C@H]1CN[C@@H](c2ccc(-n3c(Cl)cc4c(=O)n(CC5(O)CCN(C(=O)c6ccc(Cl)cc6)CC5)cnc43)cc2)CO1 (single isomer, unassigned) [Example 68] | 5.70 to 6.60 | 0.702
C[C@@H]1CN[C@H](c2ccc(-n3c(Cl)cc4c(=O)n(CC5(O)CCN(C(=O)c6ccc(Cl)cc6)CC5)cnc43)cc2)CO1 (single isomer, unassigned) [Example 69] | 5.70 to 6.60 | 0.586
CC1(C(=O)N2CCC(O)(Cn3cnc4c(cc(Cl)n4-c4ccc([C@H]5COCCN5)cc4)c3=O)CC2)CC1 (single isomer, unassigned) [Example 70] | > 7.00 | 0.022
